IC50 data for 23 molecules are collected here from US20140315901A1, “Arylpyrrolopyridine derived compounds as LRRK2 inhibitors” (H. Lundbeck A/S, priority 2013, published 2014).

Structures are written as SMILES.

One experiment deals with T1, LRRK2 WT (Homo sapiens, UniProt Q5S007).
T1 construct: comprises residues 970 to 2527 of the full length human wild-type LRRK2 kinase; purchased Invitrogen (Life Technologies Corporation)
The experiment is described as follows: LanthaScreen TR-FRET LRRK2 wild-type kinase activity assay. The experiment is classed as biochemical. Particulars: 1 nM LRRK2 WT kinase (residues 970 to 2527), 1.3 mM ATP, 0.4 μM fluorescein-LRRKtide, 2 hours at 30° C.; logarithmic average. The protocol: (§1) LRRK2 kinase activity is measured using a LanthaScreen kinase activity assay available from Invitrogen (Life Technologies Corporation). The assay is a homogeneous time resolved-fluorescence resonance energy transfer (TR-FRET) assay that measures phosphorylation of a fluorescein-labelled peptide substrate (fluorescein-LRRKtide, fluorescein-[…]) (SEQ ID NO 1) as a result of LRRK2 kinase activity. The phosphorylated peptide is recognized by a terbium-labelled phospho-specific anti-LRRKtide antibody and, subsequently, the phosphorylated LRRKtide can be quantified by the extent of TR-FRET between the terbium donor and fluorescein acceptor.
(§2) The LRRK2 kinase is obtained from Invitrogen (Life Technologies Corporation) and comprises residues 970 to 2527 of the full length human wild-type LRRK2 kinase or a similar sequence with the G2019S mutation. As discussed above, this mutation increases the kinase activity relative to the wild-type. The kinase reactions are performed in a 20 μL volume in 384-well plates. The kinase reaction buffer consists of 50 mM Tris pH 8.5, 0.01% BRIJ-35, 10 mM MgCl2, 1 mM EGTA, and 2 mM DTT.
(§3) In the assay, 1 nM LRRK2 WT or 250 pM LRRK2 G2019S kinase is incubated with the test compound (typically at 0 to 30 μM) for 30 minutes before the kinase reaction is initiated by addition of 1.3 mM ATP and 0.4 μM fluorescein-LRRKtide. The reaction mixture (20 μl total volume) is incubated for 2 hours at 30° C. before the reaction is terminated by addition of 10 mM EDTA and 1 nM terbium-labelled anti-phospho-LRRKtide antibody (final volume […]). The mixture is further incubated for 30 minutes at RT. TR-FRET is measured by excitation of the terbium-donor with 340 nm light and subsequent (delay time 100 μs) measurement of terbium and fluorescein emission at 495 nm and 520 nm, respectively, over a time window of 1000 μs. The measurement is repeated 10 times for fluorescein and 10 times for terbium emission with a 2000 μs time window between repeats. TR-FRET measurements are performed on a Biomek Synergy plate. The TR-FRET signal is calculated as the emission-ratio at 520 nm over […].
(§4) Test compound potency (IC50) was estimated by nonlinear regression using the sigmoidal dose-response (variable slope) using Xlfit 4 (IDBS, Guildford, Surrey, UK, model 205). y=(A+((B−A)/(1+((C/x)̂D)))), where y is the normalized TR-TRET ratio measurement for a given concentration of test compound, x is the concentration of test compound, A is the estimated efficacy (% inhibition) at infinite compound dilution, and B is the maximal efficacy (% inhibition). C is the IC50 value and D is the Hill slope coefficient. IC50 estimates were obtained from independent experiment and the logarithmic average was calculated.

The next experiment concerns the target T2, LRRK2 G2019S (Homo sapiens, UniProt Q5S007, G2019S).
T2 construct: purchased Invitrogen (Life Technologies Corporation)
The experiment is described as follows: LanthaScreen TR-FRET LRRK2 G2019S kinase activity assay. The settings on record: 250 pM LRRK2 G2019S kinase (residues 970 to 2527), 1.3 mM ATP, 0.4 μM fluorescein-LRRKtide, 2 hours at 30° C.; logarithmic average. The experiment is classed as biochemical. The protocol: as §1, §2, §3, §4
Background: Time-resolved FRET reads energy transfer from a long-lived donor to a nearby acceptor.

T2 sequence (Q5S007 970-2527 G2019S): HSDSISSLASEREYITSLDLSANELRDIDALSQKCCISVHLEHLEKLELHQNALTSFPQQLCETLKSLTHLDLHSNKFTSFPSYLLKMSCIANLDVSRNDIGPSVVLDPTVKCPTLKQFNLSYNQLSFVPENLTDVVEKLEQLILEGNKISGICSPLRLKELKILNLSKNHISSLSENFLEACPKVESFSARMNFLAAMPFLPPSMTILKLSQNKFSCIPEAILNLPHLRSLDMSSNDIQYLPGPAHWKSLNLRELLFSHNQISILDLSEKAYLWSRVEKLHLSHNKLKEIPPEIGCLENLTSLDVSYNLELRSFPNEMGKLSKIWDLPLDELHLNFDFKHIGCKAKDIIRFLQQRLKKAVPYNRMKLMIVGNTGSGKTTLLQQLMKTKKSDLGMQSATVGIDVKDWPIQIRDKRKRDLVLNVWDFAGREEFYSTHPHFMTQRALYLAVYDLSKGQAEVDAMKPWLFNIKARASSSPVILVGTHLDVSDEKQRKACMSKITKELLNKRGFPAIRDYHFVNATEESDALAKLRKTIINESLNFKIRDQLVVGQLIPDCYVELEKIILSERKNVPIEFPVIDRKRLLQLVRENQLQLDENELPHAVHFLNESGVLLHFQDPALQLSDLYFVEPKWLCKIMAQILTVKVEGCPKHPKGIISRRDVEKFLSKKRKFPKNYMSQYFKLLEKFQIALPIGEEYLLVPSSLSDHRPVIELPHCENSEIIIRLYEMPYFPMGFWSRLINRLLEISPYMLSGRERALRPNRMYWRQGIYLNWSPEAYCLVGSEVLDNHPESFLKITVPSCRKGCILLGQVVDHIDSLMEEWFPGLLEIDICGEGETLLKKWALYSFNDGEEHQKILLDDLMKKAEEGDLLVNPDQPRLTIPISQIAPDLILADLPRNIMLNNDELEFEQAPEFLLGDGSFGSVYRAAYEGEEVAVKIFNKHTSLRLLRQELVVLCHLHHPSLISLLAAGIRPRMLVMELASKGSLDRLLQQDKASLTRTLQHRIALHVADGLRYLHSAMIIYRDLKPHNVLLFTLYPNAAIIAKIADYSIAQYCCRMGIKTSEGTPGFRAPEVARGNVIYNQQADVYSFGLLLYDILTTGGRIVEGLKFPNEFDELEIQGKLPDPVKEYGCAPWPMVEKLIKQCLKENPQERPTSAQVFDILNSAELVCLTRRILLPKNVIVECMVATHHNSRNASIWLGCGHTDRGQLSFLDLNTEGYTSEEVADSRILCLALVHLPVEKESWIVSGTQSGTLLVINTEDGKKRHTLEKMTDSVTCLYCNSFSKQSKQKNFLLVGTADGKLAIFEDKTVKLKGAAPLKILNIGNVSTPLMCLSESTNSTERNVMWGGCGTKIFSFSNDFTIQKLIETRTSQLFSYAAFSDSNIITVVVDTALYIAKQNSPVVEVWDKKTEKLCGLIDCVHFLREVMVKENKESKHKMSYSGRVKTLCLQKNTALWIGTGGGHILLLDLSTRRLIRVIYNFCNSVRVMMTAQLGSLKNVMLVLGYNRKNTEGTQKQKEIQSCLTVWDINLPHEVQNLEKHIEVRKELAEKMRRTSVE
T1 sequence (Q5S007 970-2527): as the sequence (Q5S007 970-2527 G2019S) above, with S1050G counted along it

A word on the IC50: it is the concentration that gives 50% inhibition. Regarding `COc1cccc(-c2ccnc3[nH]cc(C#N)c23)c1` [Example 1, 4-(3-Methoxyphenyl)-1H-pyrrolo[2,3-b]pyridine-3-carbonitrile], the IC50 at LRRK2 WT is 247 nM; on LRRK2 G2019S, 201 nM.
Consider `Cc1cccc(-c2ccnc3[nH]cc(C#N)c23)c1` [Example 2, 4-(3-Methylphenyl)-1H-pyrrolo[2,3-b]pyridine-3-carbonitrile], for which the concentration for half-maximal inhibition (IC50) on LRRK2 WT came to 170 nM; at LRRK2 G2019S it was 195 nM.
As to `CCc1cccc(-c2ccnc3[nH]cc(C#N)c23)c1` [Example 3, 4-(3-Ethylphenyl)-1H-pyrrolo[2,3-b]pyridine-3-carbonitrile], the values for the IC50 at LRRK2 WT and at LRRK2 G2019S were 266 nM and 252 nM, respectively.
`N#Cc1c[nH]c2nccc(-c3ccsc3)c12` [Example 4, 4-(Thiophen-3-yl)-1H-pyrrolo[2,3-b]pyridine-3-carbonitrile]: the figures for the IC50 on LRRK2 WT and on LRRK2 G2019S were 1280 nM and 851 nM, respectively.
With `N#Cc1c[nH]c2nccc(-c3ccc(CN4CCOCC4)cc3)c12` [Example 5, 4-[4-(Morpholin-4-ylmethyl)phenyl]-1H-pyrrolo[2,3-b]pyridine-3-carbonitrile], the IC50 came out at 5440 nM at LRRK2 WT and 1310 nM at LRRK2 G2019S.
As to `N#Cc1c[nH]c2nccc(-c3ccn(CN4CCOCC4)c3)c12` [Example 6, 4-[1-(Morpholin-4-ylmethyl)pyrrol-3-yl]-1H-pyrrolo[2,3-b]pyridine-3-carbonitrile], the IC50 at LRRK2 WT amounted to 3870 nM; on LRRK2 G2019S it was 650 nM.
For the molecule `Cc1cc(-c2ccnc3[nH]cc(C#N)c23)ccc1CN1CCOCC1` [Example 7, 4-[3-Methyl-4-(morpholin-4-ylmethyl)phenyl]-1H-pyrrolo[2,3-b]pyridine-3-carbonitrile], the IC50 at LRRK2 WT was 620 nM; at LRRK2 G2019S, 78 nM.
The matching figures for `Cc1cc(-c2ccnc3[nH]cc(C#N)c23)ccc1CN(C)C` [Example 8, 4-{4-[(Dimethylamino)methyl]-3-methylphenyl}-1H-pyrrolo[2,3-b]pyridine-3-carbonitrile]: 549 nM and 288 nM.
For `CCc1cc(-c2ccnc3[nH]cc(C#N)c23)ccc1CN1CCOCC1` [Example 9, 4-[3-Ethyl-4-(morpholin-4-ylmethyl)phenyl]-1H-pyrrolo[2,3-b]pyridine-3-carbonitrile], the results for the IC50 at LRRK2 WT and at LRRK2 G2019S were 149 nM and 26 nM, respectively.
Regarding `COc1cc(-c2ccnc3[nH]cc(C#N)c23)ccc1CN1CCOCC1` [Example 10, 4-[3-Methoxy-4-(morpholin-4-ylmethyl)phenyl]-1H-pyrrolo[2,3-b]pyridine-3-carbonitrile], the IC50 was determined as 919 nM on LRRK2 WT and 154 nM on LRRK2 G2019S.
With `N#Cc1c[nH]c2nc(N)cc(-c3ccccc3)c12` [Example 11, 6-Amino-4-phenyl-1H-pyrrolo[2,3-b]pyridine-3-carbonitrile], the results for the IC50 at LRRK2 WT and at LRRK2 G2019S were 216 nM and 240 nM, respectively.
Regarding `Cc1cccc(-c2cc(N)nc3[nH]cc(C#N)c23)c1` [Example 12, 6-Amino-4-(3-methylphenyl)-1H-pyrrolo[2,3-b]pyridine-3-carbonitrile], the values for the IC50 at LRRK2 WT and on LRRK2 G2019S were 15 nM and 17 nM, respectively.
Consider `Cn1ccc(Nc2cc(-c3ccccc3)c3c(C#N)c[nH]c3n2)n1` [Example 13, 6-[(1-Methylpyrazol-3-yl)amino]-4-phenyl-1H-pyrrolo[2,3-b]pyridine-3-carbonitrile], for which the IC50 at LRRK2 WT came to 48 nM; on LRRK2 G2019S it was 58 nM.
`Cc1cccc(-c2cc(Nc3ccn(C)n3)nc3[nH]cc(C#N)c23)c1` [Example 14, 4-(3-Methylphenyl)-6-[(1-methylpyrazol-3-yl)amino]-1H-pyrrolo[2,3-b]pyridine-3-carbonitrile]: the results for the IC50 at LRRK2 WT and on LRRK2 G2019S were 1 nM and 2 nM, respectively.
As for `Cc1cc(-c2cc(Nc3ccn(C)n3)nc3[nH]cc(C#N)c23)ccc1CN1CCOCC1` [Example 15, 4-[3-Methyl-4-(morpholin-4-ylmethyl)phenyl]-6-[(1-methylpyrazol-3-yl)amino]-1H-pyrrolo[2,3-b]pyridine-3-carbonitrile], the IC50 was determined as 4 nM on LRRK2 WT and 1 nM on LRRK2 G2019S.
For `Cn1cc(Nc2cc(-c3ccccc3)c3c(C#N)c[nH]c3n2)cn1` [Example 16, 6-[(1-Methylpyrazol-4-yl)amino]-4-phenyl-1H-pyrrolo[2,3-b]pyridine-3-carbonitrile] the same measures were 97 nM and 164 nM.
Turning to `N#Cc1c[nH]c2nc(Nc3ccccn3)cc(-c3ccccc3)c12` [Example 17, 4-Phenyl-6-(pyridin-2-ylamino)-1H-pyrrolo[2,3-b]pyridine-3-carbonitrile], the IC50 was 340 nM at LRRK2 WT and 527 nM at LRRK2 G2019S.
As for `Cc1cncc(-c2cc(Nc3nn(C)cc3C(F)(F)F)nc3[nH]cc(C#N)c23)c1` [Example 18, 6-{[1-Methyl-4-(trifluoromethyl)-1H-pyrazol-3-yl]amino}-4-(5-methylpyridin-3-yl)-1H-pyrrolo[2,3-b]pyridine-3-carbonitrile], the IC50 at LRRK2 WT amounted to 358 nM; on LRRK2 G2019S, 509 nM.
For the molecule `Cc1ccnc(-c2cc(Nc3nn(C)cc3Cl)nc3[nH]cc(C#N)c23)c1` [Example 19, 6-[(4-Chloro-1-methyl-1H-pyrazol-3-yl)amino]-4-(4-methylpyridin-2-yl)-1H-pyrrolo[2,3-b]pyridine-3-carbonitrile], the IC50 is 145 nM at LRRK2 WT and 215 nM on LRRK2 G2019S.
Turning to `Cc1cccc(-c2cc(Nc3nn(C)cc3C)nc3[nH]cc(C#N)c23)n1` [Example 20, 6-[(1,4-Dimethyl-1H-pyrazol-3-yl)amino]-4-(6-methylpyridin-2-yl)-1H-pyrrolo[2,3-b]pyridine-3-carbonitrile], the IC50 came to 36 nM at LRRK2 WT and 50 nM on LRRK2 G2019S.
For `Cc1cccc(-c2cc(Nc3nn(C)cc3C(F)(F)F)nc3[nH]cc(C#N)c23)n1` [Example 21, 6-{[1-Methyl-4-(trifluoromethyl)-1H-pyrazol-3-yl]amino}-4-(6-methylpyridin-2-yl)-1H-pyrrolo[2,3-b]pyridine-3-carbonitrile], the IC50 at LRRK2 WT stood at 393 nM; on LRRK2 G2019S it was 575 nM.
As to `Cc1cncc(-c2cc(Nc3ccn(C)n3)nc3[nH]cc(C#N)c23)c1` [Example 22, 6-[(1-Methyl-1H-pyrazol-3-yl)amino]-4-(5-methylpyridin-3-yl)-1H-pyrrolo[2,3-b]pyridine-3-carbonitrile], the IC50 on LRRK2 WT came to 27 nM; at LRRK2 G2019S, 37 nM.
For the molecule `Cc1cc(-c2cc(Nc3nn(C)cc3C)nc3[nH]cc(C#N)c23)ccn1` [Example 23, 6-[(1,4-Dimethyl-1H-pyrazol-3-yl)amino]-4-(2-methylpyridin-4-yl)-1H-pyrrolo[2,3-b]pyridine-3-carbonitrile], the IC50 on LRRK2 WT was 215 nM; on LRRK2 G2019S it was 108 nM.
